Experimental data: ChEMBL document CHEMBL6127136, “Discovery of 1-(Phenylsulfonyl)-1,2,3,4-tetrahydroquinoline Derivative as Orally Bioavailable and Safe RORγt Inverse Agonists for Potential Treatment of Rheumatoid Arthritis” (J Med Chem, 2024)
Active and inactive are the calls of the source. The rule behind the calls is not given here.

How the values were obtained:
Mus musculus [1] = assay: Antiarthritic activity in chicken type II collagen-induced arthritis DBA/1 mouse model assessed as reduction in fore paw thickness at 20 mg/kg/day, po administered for 2 weeks by H and E staining based analysis; format: functional, organism-based
[2] = Cmax in male DBA/1 mouse at 20 mg/kg, po measured after 24 hrs by HPLC analysis; format: ADME, organism-based; conditions: in vivo
Mus musculus [3] = assay: Antiarthritic activity in chicken type II collagen-induced arthritis DBA/1 mouse model assessed as reduction in clinical score at 20 mg/kg/day, po measured after 42 days; format: functional, organism-based; conditions: time 42.0 day
[4] = Tmax in male DBA/1 mouse at 5 mg/kg, iv measured after 24 hrs by HPLC analysis; format: ADME, organism-based; conditions: in vivo
[5] = Toxicity in chicken type II collagen-induced arthritis DBA/1 mouse model assessed as signs of thymic enlargement at 20 mg/kg/day, po administered for 2 weeks by H and E staining based analysis; format: organism-based; conditions: in vivo, 336 h
[6] = Oral bioavailability in male DBA/1 mouse at 20 mg/kg measured after 24 hrs by HPLC analysis; format: ADME, organism-based; conditions: in vivo
[7] = AUC (0 to t) in male DBA/1 mouse at 5 mg/kg, iv measured after 24 hrs by HPLC analysis; format: ADME, organism-based; conditions: in vivo
Mus musculus [8] = assay: (§1) Antiinflammatory activity against imiquimod-induced psoriasis-like skin inflammation in Balb/c mouse model assessed as decrease in dermal telangiectasia at 10 mg/kg, IG preadministered with IMQ for 3 days followed by compound administration from day 4 and measured on day 14 by H and E staining based analysis; format: functional, organism-based; conditions: time 11.0 day
[9] = Toxicity in chicken type II collagen-induced arthritis DBA/1 mouse model assessed as increase in thymic cortex to medulla ratio at 20 mg/kg/day, po administered for 2 weeks by H and E staining based analysis; format: organism-based; conditions: in vivo, 336 h
[10] = Toxicity in chicken type II collagen-induced arthritis DBA/1 mouse model assessed as behavioral abnormalities at 20 mg/kg/day, po measured after 42 days; format: organism-based; conditions: in vivo, 1008 h, time 42 day
[11] = AUC (0 to infinity) in male DBA/1 mouse at 5 mg/kg, iv measured after 24 hrs by HPLC analysis; format: ADME, organism-based; conditions: in vivo
[12] = AUC (0 to t) in male DBA/1 mouse at 20 mg/kg, po measured after 24 hrs by HPLC analysis; format: ADME, organism-based; conditions: in vivo
Mus musculus [13] = assay: Antiarthritic activity in chicken type II collagen-induced arthritis DBA/1 mouse model assessed as reduction in hind paw erythema at 20 mg/kg/day, po administered for 2 weeks by H and E staining based analysis; format: functional, organism-based
[14] = target: T1, Nuclear receptor ROR-gamma (Homo sapiens, UniProt P51449); assay: Inverse agonist activity at N-terminal 6-His-tagged/APC-labeled human RORgammat LBD extracted from Escherichia coli assessed as inhibition of europium-labeled SRC-1 recruitment incubated for 3 hrs by TR-FRET analysis
T1 sequence (P51449 whole entry): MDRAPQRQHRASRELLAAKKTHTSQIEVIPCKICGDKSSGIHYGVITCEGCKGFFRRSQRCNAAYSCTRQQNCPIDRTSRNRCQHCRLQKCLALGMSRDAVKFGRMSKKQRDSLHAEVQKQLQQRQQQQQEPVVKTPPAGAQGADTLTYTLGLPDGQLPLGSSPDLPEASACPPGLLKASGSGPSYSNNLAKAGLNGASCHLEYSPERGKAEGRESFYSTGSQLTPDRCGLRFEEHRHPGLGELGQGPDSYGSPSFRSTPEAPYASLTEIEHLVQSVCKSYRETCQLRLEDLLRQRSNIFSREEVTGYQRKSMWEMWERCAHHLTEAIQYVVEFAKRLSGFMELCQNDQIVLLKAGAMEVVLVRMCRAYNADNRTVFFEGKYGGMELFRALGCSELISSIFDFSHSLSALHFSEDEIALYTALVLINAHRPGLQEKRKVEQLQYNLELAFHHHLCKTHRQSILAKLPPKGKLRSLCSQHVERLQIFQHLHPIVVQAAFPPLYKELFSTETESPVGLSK

[15] = Toxicity in imiquimod-induced psoriasis-like skin inflammation Balb/c mouse model assessed as change in body weight at 10 mg/kg, IG preadministered with IMQ for 3 days followed by compound administration from day 4 and measured on day 14; format: organism-based; conditions: in vivo, po, 264 h, time 11 day
[16] = Clearance in male DBA/1 mouse at 5 mg/kg, iv measured after 24 hrs by HPLC analysis; format: ADME, organism-based; conditions: in vivo
[17] = Toxicity in chicken type II collagen-induced arthritis DBA/1 mouse model assessed as morphological changes in thymocytes at 20 mg/kg/day, po administered for 2 weeks by H and E staining based analysis; format: organism-based; conditions: in vivo, 336 h
[18] = Half-life in male DBA/1 mouse at 5 mg/kg, iv measured after 24 hrs by HPLC analysis; format: ADME, organism-based; conditions: in vivo
Mus musculus [19] = assay: Antiarthritic activity in chicken type II collagen-induced arthritis DBA/1 mouse model assessed as reduction in fore paw erythema at 20 mg/kg/day, po administered for 2 weeks by H and E staining based analysis; format: functional, organism-based
[20] = Half-life in male DBA/1 mouse at 20 mg/kg, po measured after 24 hrs by HPLC analysis; format: ADME, organism-based; conditions: in vivo
Mus musculus [21] = assay: Antiarthritic activity in chicken type II collagen-induced arthritis DBA/1 mouse model assessed as improvement in arthritic symptoms at 20 mg/kg/day, po administered for 2 weeks by H and E staining based analysis; format: functional, organism-based
[22] = Tmax in male DBA/1 mouse at 20 mg/kg, po measured after 24 hrs by HPLC analysis; format: ADME, organism-based; conditions: in vivo
[23] = AUC (0 to infinity) in male DBA/1 mouse at 20 mg/kg, po measured after 24 hrs by HPLC analysis; format: ADME, organism-based; conditions: in vivo
Mus musculus [24] = assay: Antiarthritic activity in chicken type II collagen-induced arthritis DBA/1 mouse model assessed as reduction in fore paw swelling at 20 mg/kg/day, po administered for 2 weeks by H and E staining based analysis; format: functional, organism-based
Mus musculus [25] = assay: as §1, with “reduction” for “decrease”, “mononuclear cell infiltration in skin” for “dermal telangiectasia”; format: functional, organism-based; conditions: time 11.0 day
Mus musculus [26] = assay: as §1, with “IL-17F expression in skin” for “dermal telangiectasia”, “immunohistochemical” for “H and E staining based”; format: functional, organism-based; conditions: time 11.0 day
[27] = Toxicity in chicken type II collagen-induced arthritis DBA/1 mouse model assessed as body weight loss at 20 mg/kg/day, po measured after 42 days; format: organism-based; conditions: in vivo, 1008 h, time 42 day
Mus musculus [28] = assay: as §1, with “IL-17A expression in skin” for “dermal telangiectasia”, “immunohistochemical” for “H and E staining based”; format: functional, organism-based; conditions: time 11.0 day
Mus musculus [29] = assay: Antiarthritic activity in chicken type II collagen-induced arthritis DBA/1 mouse model assessed as reduction in hind paw thickness at 20 mg/kg/day, po administered for 2 weeks by H and E staining based analysis; format: functional, organism-based
Mus musculus [30] = assay: Antiarthritic activity in chicken type II collagen-induced arthritis DBA/1 mouse model assessed as reduction in hind paw swelling at 20 mg/kg/day, po administered for 2 weeks by H and E staining based analysis; format: functional, organism-based
[31] = target: T1, Nuclear receptor ROR-gamma; assay: Inverse agonist activity at GAL4 DNA-binding domain fused RORgamma (unknown origin) transfected in HEK293T cells co-transfected with GAL4-promoter driven luciferase reporter gene assessed as inhibition of RORgammat transcription incubated for 18 to 20 hrs by plate reader analysis; format: cell-based
[32] = Toxicity in chicken type II collagen-induced arthritis DBA/1 mouse model assessed as signs of lymphoma at 20 mg/kg/day, po administered for 2 weeks by H and E staining based analysis; format: organism-based; conditions: in vivo, 336 h
Mus musculus [33] = assay: as §1, with “reduction” for “decrease”, “inflammatory cell infiltration in skin” for “dermal telangiectasia”; format: functional, organism-based; conditions: time 11.0 day
[34] = Cmax in male DBA/1 mouse at 5 mg/kg, iv measured after 24 hrs by HPLC analysis; format: ADME, organism-based; conditions: in vivo
Mus musculus [35] = assay: as §1, with “attenuation of skin layer thickening” for “decrease in dermal telangiectasia”; format: functional, organism-based; conditions: time 11.0 day
Mus musculus [36] = assay: as §1, with “IL-23 expression in skin” for “dermal telangiectasia”, “immunohistochemical” for “H and E staining based”; format: functional, organism-based; conditions: time 11.0 day

In the case of `CCc1ccc(N(CC(C)C)S(=O)(=O)c2ccc(OCC3CCOCC3)c(CO)c2)cc1` [GSK2981278], the Activity (Mus musculus [1]) is reported as “Active”, the Cmax [2] is reported as 99.3 ng/mL and the Activity (Mus musculus [3]) is reported as “Active”. For the same compound, the Tmax [4] was 4.98 min, the Activity [5] was “Non-Toxic” and the bioavailability [6] was 6.2%. The AUC(0-t) at 24 h [7] was 1270 ng·h/mL, the Activity (Mus musculus [8]) was “Active” and the Activity [9] was “Toxic”. For the same compound, the Activity [10] was “Non-Toxic”, the AUC(0-inf) [11] was 1310 ng·h/mL and the AUC(0-t) at 24 h [12] was 299 ng·h/mL. For the same compound, the Activity (Mus musculus [13]) was “Active”, the IC50 [14] was 2.5 nM and the Activity [15] was “Non-Toxic”. The clearance [16] was 64.2 mL/min/kg, the Activity [17] was “Non-Toxic” and the half-life [18] was 3.81 h. The Activity (Mus musculus [19]) was “Active”, the half-life [20] was 4.99 h and the Activity (Mus musculus [21]) was “Active”. For the same compound, the Tmax [22] was 0.417 h, the AUC(0-inf) [23] was 326 ng·h/mL and the Activity (Mus musculus [24]) was “Active”. The Activity (Mus musculus [25]) was “Active”, the Activity (Mus musculus [26]) was “Active” and the Activity [27] was “Non-Toxic”. The Activity (Mus musculus [28]) was “Active”, the Activity (Mus musculus [29]) was “Active” and the Activity (Mus musculus [30]) was “Active”. For the same compound, the IC50 [31] was 13.6 nM, the Activity [32] was “Non-Toxic” and the Activity (Mus musculus [33]) was “Active”. For the same compound, the Cmax [34] was 1280 ng/mL, the Activity (Mus musculus [35]) was “Active” and the Activity (Mus musculus [36]) was “Active”.
